Experimental data taken from PubChem BioAssay AID192 (DTP/NCI, 2004).
Where “and” joins values, the source holds several entries; their conditions need not be identical. Identical values can stand only once. Toxic doses and inconclusive results are not listed.

Test system: BDF1 mice, B16 melanoma ip, median survival T/C
Experiment: NCI In Vivo Anticancer Drug Screen. Data for tumor model B16 Melanoma (intraperitoneal) in B6D2F1 (BDF1) mice
Settings: endpoint: median survival time, higher = longer survival
Procedure, shortened: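 The ratio T/C compares compound-treated mice with vehicle-treated controls, using survival or tumor size as the endpoint in a transplantable tumor model.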

[1] = dose: 3.13 mg/kg/injection, schedule: Q01DX009 (ip), vehicle: saline
[2] = dose: 6.25 mg/kg/injection, schedule: Q01DX009 (ip), vehicle: saline with Tween-80
[3] = dose: 12.5 mg/kg/injection, schedule: Q01DX009 (ip), vehicle: saline with Tween-80
[4] = dose: 25.0 mg/kg/injection, schedule: Q01DX009 (ip), vehicle: saline with Tween-80
[5] = dose: 25.0 mg/kg/injection, schedule: Q01DX009 (ip), vehicle: saline
[6] = dose: 50.0 mg/kg/injection, schedule: Q01DX009 (ip), vehicle: saline with Tween-80
[7] = dose: 50.0 mg/kg/injection, schedule: Q01DX009 (ip), vehicle: saline
[8] = dose: 100.0 mg/kg/injection, schedule: Q01DX009 (ip), vehicle: saline with Tween-80
[9] = dose: 25.0 mg/kg/injection, schedule: Q01DX009 (ip), vehicle: Klucel (hydroxypropylcellulose) (HPC)
[10] = dose: 50.0 mg/kg/injection, schedule: Q01DX009 (ip), vehicle: Klucel (hydroxypropylcellulose) (HPC)
[11] = dose: 100.0 mg/kg/injection, schedule: Q01DX009 (ip), vehicle: Klucel (hydroxypropylcellulose) (HPC)
[12] = dose: 12.5 mg/kg/injection, schedule: Q01DX009 (ip), vehicle: saline
[13] = dose: 200.0 mg/kg/injection, schedule: Q01DX009 (ip), vehicle: Klucel (hydroxypropylcellulose) (HPC)
[14] = dose: 400.0 mg/kg/injection, schedule: Q01DX009 (ip), vehicle: Klucel (hydroxypropylcellulose) (HPC)
[15] = dose: 12.5 mg/kg/injection, schedule: Q01DX009 (ip), vehicle: Klucel (hydroxypropylcellulose) (HPC)
[16] = dose: 6.25 mg/kg/injection, schedule: Q01DX009 (ip), vehicle: Klucel (hydroxypropylcellulose) (HPC)
[17] = dose: 100.0 mg/kg/injection, schedule: Q04DX003 (ip), vehicle: saline with Tween-80
[18] = dose: 200.0 mg/kg/injection, schedule: Q04DX003 (ip), vehicle: saline with Tween-80

SMILES: CC1(C)N=C(N)N=C(N)N1c1ccc(CCCCc2ccc(S(=O)(=O)F)cc2Cl)c(Cl)c1
- T/C (dose: 1.56 mg/kg/injection, schedule: Q01DX009 (ip), vehicle: saline with Tween-80): 120 % of control
- T/C (dose: 3.13 mg/kg/injection, schedule: Q01DX009 (ip), vehicle: saline with Tween-80): 120 % of control
- T/C [1]: 117 % of control
- T/C [2]: 176 % of control
- T/C (dose: 9.4 mg/kg/injection, schedule: Q04DX003 (ip), vehicle: saline): 120 % of control
- T/C [3]: 158 % of control and 189 % of control
- T/C (dose: 18.75 mg/kg/injection, schedule: Q04DX003 (ip), vehicle: saline): 119 % of control
- T/C [4]: 164 % of control and 200 % of control
- T/C [5]: 158 % of control
- T/C [6]: 182 % of control and 189 % of control
- T/C [7]: 178 % of control
- T/C (dose: 89.0 mg/kg/injection, schedule: Q04DX003 (ip), vehicle: saline with Tween-80): 157 % of control
- T/C [8]: 197 % of control
- T/C (dose: 133.0 mg/kg/injection, schedule: Q04DX003 (ip), vehicle: saline with Tween-80): 95 % of control
- T/C (dose: 150.0 mg/kg/injection, schedule: Q04DX003 (ip), vehicle: saline): 160 % of control

SMILES: Cc1ccc(SSc2ccc(C)cc2[N+](=O)[O-])c([N+](=O)[O-])c1
- T/C [9]: 100 % of control
- T/C [10]: 89 % of control
- T/C [11]: 86 % of control and 93 % of control

SMILES: Cc1ccc([NH-])c([NH-])c1.[Cl][Pt+2][Cl]
- T/C (dose: 1.25 mg/kg/injection, schedule: Q01DX009 (ip), vehicle: saline with Tween-80): 120 % of control
- T/C (dose: 5.0 mg/kg/injection, schedule: Q01DX009 (ip), vehicle: saline with Tween-80): 161 % of control

SMILES: Cc1ccc(C(=O)CCl)c(C)c1
- T/C [3]: 90 % of control
- T/C [4]: 92 % of control
- T/C [6]: 95 % of control

SMILES: O=CCC(O)C(O)C(O)CO (stereo not drawn)
- T/C (dose: 300.0 mg/kg/injection, schedule: Q01DX009 (ip), vehicle: suspension in saline): 104 % of control
- T/C (dose: 600.0 mg/kg/injection, schedule: Q01DX009 (ip), vehicle: suspension in saline): 100 % of control
- T/C (dose: 1200.0 mg/kg/injection, schedule: Q01DX009 (ip), vehicle: suspension in saline): 100 % of control
- T/C (dose: 1800.0 mg/kg/injection, schedule: Q01DX009 (ip), vehicle: suspension in saline): 101 % of control

SMILES: O=C1CN(CN2CCOCC2)C(=O)CN1CN1CCOCC1
- T/C [12]: 98 % of control
- T/C [5]: 102 % of control
- T/C [7]: 112 % of control
- T/C (dose: 100.0 mg/kg/injection, schedule: Q01DX009 (ip), vehicle: saline): 104 % of control
- T/C (dose: 200.0 mg/kg/injection, schedule: Q01DX009 (ip), vehicle: saline): 101 % of control

SMILES: Nc1ncnc2sc3c(c12)CCCC3
- T/C [11]: 100 % of control
- T/C [13]: 101 % of control
- T/C [14]: 110 % of control

SMILES: C=CN1CCCC1=O
- T/C (dose: 178.0 mg/kg/injection, schedule: Q01DX009 (ip), vehicle: saline): 109 % of control
- T/C (dose: 266.0 mg/kg/injection, schedule: Q01DX009 (ip), vehicle: saline): 100 % of control
- T/C (dose: 400.0 mg/kg/injection, schedule: Q01DX009 (ip), vehicle: saline): 104 % of control
- T/C (dose: 600.0 mg/kg/injection, schedule: Q01DX009 (ip), vehicle: saline): 111 % of control
- T/C (dose: 750.0 mg/kg/injection, schedule: Q01DX009 (ip), vehicle: saline): 108 % of control

SMILES: CNC(=O)Nc1c(C)cccc1C
- T/C [11]: 96 % of control
- T/C [13]: 100 % of control

SMILES: CC1=CC2=C(C=O)C(=O)[C@](C)(O)[C@@H](O)C2=CO1
- T/C [2]: 119 % of control
- T/C [3]: 108 % of control
- T/C [4]: 122 % of control

SMILES: O=C(O)c1cc(C(=O)O)cc([N+](=O)[O-])c1
- T/C [4]: 97 % of control
- T/C [6]: 100 % of control

SMILES: CN(C)C1CCCCC1
- T/C [15]: 91 % of control
- T/C (dose: 12.5 mg/kg/injection, schedule: Q04DX003 (ip), vehicle: Klucel (hydroxypropylcellulose) (HPC)): 116 % of control
- T/C (dose: 25.0 mg/kg/injection, schedule: Q04DX003 (ip), vehicle: Klucel (hydroxypropylcellulose) (HPC)): 100 % of control
- T/C [10]: 100 % of control
- T/C (dose: 50.0 mg/kg/injection, schedule: Q04DX003 (ip), vehicle: Klucel (hydroxypropylcellulose) (HPC)): 91 % of control

SMILES: CCNc1nc(NCC)nc(SC)n1
- T/C [4]: 97 % of control
- T/C [6]: 87 % of control
- T/C [8]: 105 % of control

SMILES: CC(=O)OCC1OC(n2cc(CBr)nn2)C(OC(C)=O)C(OC(C)=O)C1OC(C)=O (stereo not drawn)
- T/C (dose: 3.12 mg/kg/injection, schedule: Q01DX009 (ip), vehicle: Klucel (hydroxypropylcellulose) (HPC)): 97 % of control
- T/C [16]: 98 % of control
- T/C [15]: 108 % of control
- T/C [9]: 100 % of control
- T/C [10]: 98 % of control

SMILES: O=c1[nH]/c(=C\c2ccc3c(c2)OCO3)c(=O)[nH]/c1=C\c1ccc2c(c1)OCO2
- T/C (dose: 12.5 mg/kg/injection, schedule: Q01DX009 (ip), vehicle: carboxymethylcellulose (CMC)): 113 % of control
- T/C (dose: 25.0 mg/kg/injection, schedule: Q01DX009 (ip), vehicle: carboxymethylcellulose (CMC)): 100 % of control
- T/C (dose: 50.0 mg/kg/injection, schedule: Q01DX009 (ip), vehicle: carboxymethylcellulose (CMC)): 106 % of control
- T/C [11]: 86 % of control

SMILES: NC(=O)CC(N)C(=O)O.[Cl-].[Cl-].[Cl-].[Cl-].[Pt+2] (stereo not drawn)
- T/C (dose: 1.56 mg/kg/injection, schedule: Q01DX009 (ip), vehicle: saline): 114 % of control
- T/C [1]: 122 % of control

SMILES: Cc1cc2ccc(OC(=O)c3ccc(N=C(N)N)cc3)cc2oc1=O
- T/C [3]: 91 % of control
- T/C [4]: 100 % of control
- T/C [8]: 86 % of control
- T/C [17]: 92 % of control
- T/C [18]: 95 % of control
- T/C (dose: 400.0 mg/kg/injection, schedule: Q04DX003 (ip), vehicle: saline with Tween-80): 95 % of control

SMILES: CC1(C)N=C(N)N=C(N)N1c1cccc(CNC(=O)Nc2cccc(S(=O)(=O)F)c2)c1
- T/C [7]: 101 % of control

SMILES: CN(C)/C=C/C(=O)c1ccccc1[N+](=O)[O-]
- T/C [11]: 115 % of control
- T/C (dose: 100.0 mg/kg/injection, schedule: Q04DX003 (ip), vehicle: Klucel (hydroxypropylcellulose) (HPC)): 95 % of control
- T/C [13]: 100 % of control
- T/C (dose: 200.0 mg/kg/injection, schedule: Q04DX003 (ip), vehicle: Klucel (hydroxypropylcellulose) (HPC)): 92 % of control
- T/C [14]: 93 % of control
- T/C (dose: 400.0 mg/kg/injection, schedule: Q04DX003 (ip), vehicle: Klucel (hydroxypropylcellulose) (HPC)): 88 % of control

SMILES: CC1(C)N=C(N)N=C(N)N1c1cccc(CCC(=O)Nc2ccc(S(=O)(=O)F)cc2)c1
- T/C (dose: 30.0 mg/kg/injection, schedule: Q01DX009 (ip), vehicle: saline with Tween-80): 113 % of control
- T/C (dose: 60.0 mg/kg/injection, schedule: Q01DX009 (ip), vehicle: saline with Tween-80): 123 % of control
- T/C (dose: 120.0 mg/kg/injection, schedule: Q01DX009 (ip), vehicle: saline with Tween-80): 110 % of control

SMILES: COc1ccccc1N=Nc1c(O)ccc2ccccc12
- T/C [4]: 101 % of control
- T/C [6]: 112 % of control
- T/C [8]: 108 % of control

SMILES: CC1(C)N=C(N)N=C(N)N1c1ccc(Cl)cc1Cl
- T/C [15]: 108 % of control
- T/C [9]: 111 % of control
- T/C [10]: 123 % of control

SMILES: CC(=O)C1CCC2C3CCC4=CC(=O)CC4(C)C3CCC12C (stereo not drawn)
- T/C [17]: 94 % of control
- T/C [18]: 105 % of control

SMILES: OCC1OC(n2cnc3cncnc32)C(O)C1O (stereo not drawn)
- T/C [12]: 115 % of control

SMILES: CC1CCC2N(C1)CC1C(C(O)C(O)C3(O)C1CC14OC5(O)C(O)CCC1(C)C5CC(O)C34)C2(C)O (stereo not drawn)
- T/C (dose: 16.25 mg/kg/injection, schedule: Q01DX009 (ip), vehicle: saline): 100 % of control
- T/C (dose: 37.5 mg/kg/injection, schedule: Q01DX009 (ip), vehicle: saline): 102 % of control
- T/C (dose: 65.0 mg/kg/injection, schedule: Q01DX009 (ip), vehicle: saline): 100 % of control
- T/C (dose: 130.0 mg/kg/injection, schedule: Q01DX009 (ip), vehicle: saline): 104 % of control

SMILES: Cc1ccc(NC(=O)NC(C)C)c(C)c1
- T/C [16]: 101 % of control
- T/C [15]: 95 % of control
- T/C [9]: 94 % of control

SMILES: Oc1cc(Br)ccc1C=Nc1ccc(N2CCCCC2)cc1
- T/C [11]: 106 % of control
- T/C [13]: 93 % of control
- T/C [14]: 93 % of control

SMILES: Cc1ccc(N=CN(C)Sc2ccc(C(C)(C)C)cc2)c(C)c1
- T/C [9]: 100 % of control
- T/C [10]: 98 % of control
- T/C [11]: 95 % of control
- T/C [13]: 94 % of control

SMILES: CCO/C=C1\SC(=S)N(c2ccc(C(=O)O)cc2)C1=O
- T/C [3]: 107 % of control
- T/C [4]: 115 % of control
- T/C [6]: 110 % of control
